This is an account of results in paper PMC3458005, “Involvement of the Azotobacter vinelandii Rhodanese-Like Protein RhdA in the Glutathione Regeneration Pathway” (PLoS ONE, 2012).

For one data set, the target named is T1, RhdA (Azotobacter vinelandii, UniProt P52197).
T1 construct: His-tagged (pQER1) from E. coli BL21[pRep4], Ni-NTA purified; cyanide-treated (sulfane sulfur-deprived); only cysteine Cys230
The data set is described as follows: intrinsic tryptophan fluorescence titration. It is filed as binding.

The test system of data set [1] is N[C@@H](CCC(=O)N[C@@H](C[S])C(=O)NCC(=O)O)C(=O)O. Description: purified protein. The note with it: pH 7.4; 25.0 °C.

T1 sequence (P52197 whole entry): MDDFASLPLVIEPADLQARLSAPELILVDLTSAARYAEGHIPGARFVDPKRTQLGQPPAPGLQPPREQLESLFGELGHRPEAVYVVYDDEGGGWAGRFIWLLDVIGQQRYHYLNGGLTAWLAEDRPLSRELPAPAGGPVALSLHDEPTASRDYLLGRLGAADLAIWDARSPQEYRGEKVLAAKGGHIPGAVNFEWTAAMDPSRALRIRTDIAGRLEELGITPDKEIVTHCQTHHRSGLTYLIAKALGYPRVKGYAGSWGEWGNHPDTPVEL

On RhdA, `N[C@@H](CCC(=O)N[C@@H](C[S])C(=O)NCC(=O)O)C(=O)O` [GS^•, glutathione thiyl radical] gave a Kd of approximately 11 µM. `O=S(O)(O)=S` [thiosulfate] came in with a Kd at RhdA of 0.76 ± 0.01 µM. For the compound RhdA (Azotobacter vinelandii), the Km in data set [1] worked out at 560 ± 110 µM.

One may read the Kd as the free concentration of one partner at which half of the binding sites on the other are occupied at equilibrium, for simple one-to-one binding. Broadly, the Km is the concentration of substrate that gives half-maximal velocity.
